Columns and labels:
Mus musculus [1] = experiment: Cytotoxicity against sc transplanted DMS273 sm cell tumors of mouse and human origin, activity expressed as T/C(%) at the dose of 175 mg/kg, iv; assay type: functional
Mus musculus [2] = experiment: Cytotoxicity against iv transplanted L1210 tumors of mouse origin, activity expressed as %ILS at the dose of 300 mg/kg, iv; assay type: functional
Mus musculus [3] = experiment: Cytotoxicity against sc transplanted colon-38 tumors of mouse origin, activity expressed as %T/C value at the dose of 546 mg/kg, iv; assay type: functional
Mus musculus [4] = experiment: Cytotoxicity against sc transplanted colon-51 tumors of mouse origin, activity expressed as T/C(%) at the dose of 980 mg/kg, po; assay type: functional
Mus musculus [5] = experiment: In vivo activity tested against C3H mice bearing mammary adenocarcinoma -17/ADR tumor measured as body weight loss at 620 mg/kg (po); assay type: functional
Mus musculus [6] = experiment: Cytotoxicity against sc transplanted colon-38 tumors of mouse origin, activity expressed as %body wt lose at the dose of 546 mg/kg, iv; assay type: functional
Mus musculus [7] = experiment: Cytotoxicity against sc transplanted Mam-16/C tumors of mouse origin, activity expressed as %T/C at the dose of 525 mg/kg, iv; assay type: functional
Mus musculus [8] = experiment: Cytotoxicity against sc transplanted Mam-16/C/Adr tumors of mouse origin, activity expressed as T/C(%) at the dose of 400 mg/kg, iv; assay type: functional
Mus musculus [9] = experiment: Cytotoxicity against sc transplanted Mam-17/0 tumors of mouse origin, activity expressed as T/C(%) at the dose of 620 mg/kg, iv; assay type: functional
Mus musculus [10] = experiment: Cytotoxicity against sc transplanted colon-26 tumors of mouse origin, activity expressed as T/C(%) at the dose of 300 mg/kg, iv; assay type: functional
Mus musculus [11] = experiment: In vivo activity tested against C3H mice bearing mammary adenocarcinoma -17/ADR tumor measured as log Kill value was based on tumors that grew at 620 mg/kg (po); assay type: functional, organism-based; design: dose 620 mg/kg
Mus musculus [12] = experiment: Cytotoxicity against sc transplanted Mam-16/C/Adr tumors of mouse origin, activity expressed as […] at the dose of 400 mg/kg, iv; assay type: functional, organism-based; design: dose 400 mg/kg
Mus musculus [13] = experiment: Cytotoxicity against sc transplanted Mam-16/C/Taxol tumors of mouse origin, activity expressed as %log kill at the dose of 480 mg/kg, iv; assay type: functional, organism-based; design: dose 480 mg/kg
Mus musculus [14] = experiment: Cytotoxicity against sc transplanted Mam-17/Adr tumors of mouse origin, activity expressed as log10 Kill at the dose of 620 mg/kg, iv; assay type: functional, organism-based; design: dose 620 mg/kg
Mus musculus [15] = experiment: Cytotoxicity against sc transplanted Mam-17/Adr tumors of mouse origin, activity expressed as cures at the dose of 620 mg/kg, iv; 0/5 cures; assay type: functional
Mus musculus [16] = experiment: Cytotoxicity against sc transplanted colon-51 tumors of mouse origin, activity expressed as log10 Kill at the dose of 980 mg/kg, po; assay type: functional, organism-based; design: dose 980 mg/kg
Mus musculus [17] = experiment: Cytotoxicity against iv transplanted L1210 tumors of mouse origin, activity expressed as cures at the dose of 300 mg/kg, iv; 0/5 cures; assay type: functional
Mus musculus [18] = experiment: Cytotoxicity against sc transplanted DMS273 sm cell tumors of mouse and human origin, activity expressed as cures at the dose of 175 mg/kg, iv; 0/6 cures; assay type: functional
Mus musculus [19] = experiment: Cytotoxicity against sc transplanted L1210 tumors of mouse origin, activity expressed as cures at the dose of 332 mg/kg, iv; 0/5 cures; assay type: functional
Mus musculus [20] = experiment: Cytotoxicity against sc transplanted Mam-16/C/Adr tumors of mouse origin, activity expressed as […] at the dose of 400 mg/kg, iv; 0/5 cures; assay type: functional
Mus musculus [21] = experiment: Cytotoxicity against iv transplanted L1210 tumors of mouse origin, activity expressed as log10 Kill at the dose of 300 mg/kg, iv; assay type: functional, organism-based; design: dose 300 mg/kg
Mus musculus [22] = experiment: Cytotoxicity against sc transplanted Mam-16/C tumors of mouse origin, activity expressed as log kill at the dose of 525 mg/kg, iv; assay type: functional, organism-based; design: dose 525 mg/kg
Mus musculus [23] = experiment: Cytotoxicity against sc transplanted B-16 melanoma tumors of mouse origin, activity expressed as %body wt. loss at the dose of 300 mg/kg, iv; assay type: functional
Mus musculus [24] = experiment: Cytotoxicity against sc transplanted Mam-16/C tumors of mouse origin, activity expressed as %body wt loss at the dose of 525 mg/kg, iv; assay type: functional
Mus musculus [25] = experiment: Cytotoxicity against transplanted Panc-02 tumors of mouse origin, activity expressed as cures at the dose of 600 mg/kg, iv; 0/6 cures; assay type: functional
Mus musculus [26] = experiment: In vivo activity tested against C3H mice bearing panc-03 murine tumor, measured as cures at 328 mg/kg (po); 4/6 cures; assay type: functional
Mus musculus [27] = experiment: Cytotoxicity against sc transplanted Mam-16/C/Taxol tumors of mouse origin, activity expressed as %body wt. loss at the dose of 480 mg/kg, iv; assay type: functional
Mus musculus [28] = experiment: Cytotoxicity against sc transplanted Panc-03 tumors of mouse […] origin, activity expressed as %body wt loss at the dose of 328 mg/kg, po; assay type: functional
Mus musculus [29] = experiment: Cytotoxicity against sc transplanted colon-26 tumors of mouse origin, activity expressed as %body wt. loss at the dose of 300 mg/kg, iv; assay type: functional

SMILES: CC(Oc1ccc(Oc2cnc3ccc(Cl)cc3n2)cc1)C(=O)O (centres undefined)
- T/C (Mus musculus [1]): 14%
- ILS at 300 mg/kg (Mus musculus [2]): 160%
- T/C (Mus musculus [3]): 0%
- T/C (Mus musculus [4]): 0%
- Body weight loss (Mus musculus [5]): -4%
- Body weight loss (Mus musculus [6]): -3.5%
- T/C (Mus musculus [7]): 0%
- T/C (Mus musculus [8]): 0%
- T/C (Mus musculus [9]): 10%
- T/C (Mus musculus [10]): 14%
- Log kill (Mus musculus [11]): 3.9
- Log kill (Mus musculus [12]): 4.1
- Log kill (Mus musculus [13]): 2.7
- Log kill (Mus musculus [14]): 3.9
- Cures (Mus musculus [15]): 0
- Log kill (Mus musculus [16]): 2.7
- Cures (Mus musculus [17]): 0
- Cures (Mus musculus [18]): 0
- Cures (Mus musculus [19]): 0
- Cures (Mus musculus [20]): 0
- Log kill (Mus musculus [21]): 6.4
- Log kill (Mus musculus [22]): 5.2
- Body weight loss (Mus musculus [23]): -11%
- Body weight loss (Mus musculus [24]): -9%
- Cures (Mus musculus [25]): 0
- Cures (Mus musculus [26]): 4
- Body weight loss (Mus musculus [27]): -11%
- Body weight loss (Mus musculus [28]): -4%
- Body weight loss (Mus musculus [29]): -12%

— ChEMBL document CHEMBL1134487, “Design, synthesis, and biological evaluation of analogues of the antitumor agent, 2-(4-[(7-chloro-2-quinoxalinyl)oxy]phenoxy)propionic acid (XK469)” (2001)
